Data on 9 compounds can be found in patent publication US20220370416A1, “COMPOUNDS AND METHODS FOR TARGETED DEGRADATION OF KRAS” (Arvinas Operations, Inc., priority 2020, published 2022).

Test [1] addresses T1, HiBit-KRAS^G12C (Homo sapiens, UniProt P01116, G12C). The test can be described thus: HiBit degradation assay in MiaPaCa-2 HiBit-KRas^G12C cells. The note with it: 24 hours; for Dmax: MIA PaCa-2, MiaPaCa-2 HiBit-KRas^G12C cells, maximum degradation; for DC50: read-out: KRas^G12C-HiBiT (MiaPaCa; 0.1% DMSO) IC50, MiaPaCa-2 HiBit-KRas^G12C cells. Type of test: cell-based. An outline of the steps:
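MiaPaCa-2 cells with CRISPR N-terminal HiBit knock-in on one endogenous KRAS^G12C allele, treated 24 hours at 37° C with compound titrated 10 μM to 20 nM (0.1% or 0.5% DMSO). Lytic HiBit luminescence normalized to DMSO, 4-parameter fit giving DC50 and Dmax; points cytotoxic to […] cells by alamar blue excluded.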

Test [2] addresses T1, HiBit-KRAS^G12C. The test can be described thus: HiBit degradation assay in SW1573 HiBit-KRas^G12C cells. The test is classed as cell-based. The settings on record: 24 hours; for DC50: read-out: KRas^G12C-HIBit (SW1573; 0.1% DMSO) DC50*. Details: expressed in transfected cells; host or cells: SW1573 (clone E6), modified pcDNA3.1 vector, TK promoter. In short, it runs like this: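 SW1573 cells stably expressing N-terminally HiBit-tagged KRAS G12C, under the TK promoter, were treated 24 h at 37 °C with 10 μM to 20 nM compound in 0.1% or 0.5% DMSO. Residual HiBit luminescence normalised to DMSO and fitted with a 4-parameter model for DC50 and Dmax. Points with ≥50% viability loss (alamar blue) excluded.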

Setting [3] is: 0.1% DMSO, read-out: KRas^G12C-HiBiT (MiaPaCa; 0.1% DMSO) DMax.
The mark [4] stands for this setting: SW1573, SW1573 HiBit-KRas^G12C, 0.1% DMSO, read-out: KRas^G12C-HiBit (SW1573; 0.1% DMSO) Dmax**.
Setting [5] is: SW1573 HiBit-KRas^G12C, 0.1% DMSO.
The mark [6] stands for this setting: 0.5% DMSO, read-out: KRas^G12C-HiBiT (MiaPaCa; 0.5% DMSO) DMax.
Setting [7] is: SW1573, SW1573 HiBit-KRas^G12C, 0.5% DMSO, read-out: KRas^G12C-HiBiT (SW1573; 0.5% DMSO) Dmax**.

The structures appear in SMILES notation.

T1 sequence (P01116 1-186 isoform P01116-2 G12C limits assumed): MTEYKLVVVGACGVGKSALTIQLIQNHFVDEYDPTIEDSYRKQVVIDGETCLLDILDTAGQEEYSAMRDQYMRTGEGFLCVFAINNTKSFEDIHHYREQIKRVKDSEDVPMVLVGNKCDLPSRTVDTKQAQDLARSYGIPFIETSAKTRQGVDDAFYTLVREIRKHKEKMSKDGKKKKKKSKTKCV

Regarding `C=CC(=O)N1CCN(c2nc(OCCCN3CCC(OCC(=O)N[C@H](C(=O)N4C[C@H](O)C[C@H]4C(=O)N[C@@H](C)c4ccc(-c5scnc5C)cc4)C(C)(C)C)CC3)nc3c(F)c(-c4cc(O)cc5ccccc45)c(Cl)cc23)CC1` [Compound 25, (2S,4R)-1-[(2S)-2-(2-{[1-(3-{[6-chloro-8-fluoro-7-(3-hydroxynaphthalen-1-yl)-4-[4-(prop-2-enoyl)piperazin-1-yl]quinazolin-2-yl]oxy}propyl)piperidin-4-yl]oxy}acetamido)-3,3-dimethylbutanoyl]-4-hydroxy-N-[(1S)-1-[4-(4-methyl-1,3-thiazol-5-yl)phenyl]ethyl]pyrrolidine-2-carboxamide], the figures for the Dmax at HiBit-KRAS^G12C [1] (setting [3]) and at HiBit-KRAS^G12C [2] (setting [4]) were below 35% and 35 to 70%, respectively. In addition, at HiBit-KRAS^G12C [2] (setting [5]), the DC50 was 100 to 1000 nM.

On to `C=CC(=O)N1CCN(c2nc(O[C@H](C)CN3CCN(CC4CN(CC(=O)N[C@H](C(=O)N5C[C@H](O)C[C@H]5C(=O)N[C@@H](C)c5ccc(-c6scnc6C)cc5)C(C)(C)C)C4)CC3)nc3c(F)c(-c4cc(O)cc5ccccc45)c(Cl)cc23)CC1` [Compound 28, (2S,4R)-1-[(2S)-2-{2-[3-({4-[(2R)-2-{[6-chloro-8-fluoro-7-(3-hydroxynaphthalen-1-yl)-4-[4-(prop-2-enoyl)piperazin-1-yl]quinazolin-2-yl]oxy}propyl]piperazin-1-yl}methyl)azetidin-1-yl]acetamido}-3,3-dimethylbutanoyl]-4-hydroxy-N-[(1S)-1-[4-(4-methyl-1,3-thiazol-5-yl)phenyl]ethyl]pyrrolidine-2-carboxamide], for which the DC50 was above 1000 nM on HiBit-KRAS^G12C [1] (0.1% DMSO) and 100 to 1000 nM at HiBit-KRAS^G12C [2] (setting [5]). The Dmax on HiBit-KRAS^G12C [2] (SW1573, read-out: KRas^G12C-HiBit (SW1573; 0.1% DMSO) Dmax**, SW1573 HiBit-KRas^G12C, 0.1% DMSO) is below 35%.

Regarding `C=CC(=O)N1CCN(c2nc(O[C@H](C)CN3CCC(COCC(=O)N[C@H](C(=O)N4C[C@H](O)C[C@H]4C(=O)N[C@@H](C)c4ccc(-c5scnc5C)cc4)C(C)(C)C)CC3)nc3c2CCN(c2cc(O)cc4ccccc24)C3)C[C@@H]1CC#N` [Compound 29, (2S,4R)-1-[(2S)-2-[2-({1-[(2R)-2-({4-[(3S)-3-(cyanomethyl)-4-(prop-2-enoyl)piperazin-1-yl]-7-(3-hydroxynaphthalen-1-yl)-5H,6H,7H,8H-pyrido[3,4-d]pyrimidin-2-yl}oxy)propyl]piperidin-4-yl}methoxy)acetamido]-3,3-dimethylbutanoyl]-4-hydroxy-N-[(1S)-1-[4-(4-methyl-1,3-thiazol-5-yl)phenyl]ethyl]pyrrolidine-2-carboxamide], the Dmax at HiBit-KRAS^G12C [1] (setting [3]), at HiBit-KRAS^G12C [1] (setting [6]), on HiBit-KRAS^G12C [2] (setting [4]) and at HiBit-KRAS^G12C [2] (setting [7]) was 35 to 70% throughout. At HiBit-KRAS^G12C [2] (setting [5]), the DC50 was above 1000 nM.

As for `C=CC(=O)N1CCN(c2nc(O[C@H](C)CN3CCC(OCCOCC(=O)N[C@H](C(=O)N4C[C@H](O)C[C@H]4C(=O)N[C@@H](C)c4ccc(-c5scnc5C)cc4)C(C)(C)C)CC3)nc3c2CCN(c2cc(O)cc4ccccc24)C3)C[C@@H]1CC#N` [Compound 31, (2S,4R)-1-[(2S)-2-{2-[2-({1-[(2R)-2-({4-[(3S)-3-(cyanomethyl)-4-(prop-2-enoyl)piperazin-1-yl]-7-(3-hydroxynaphthalen-1-yl)-5H,6H,7H,8H-pyrido[3,4-d]pyrimidin-2-yl}oxy)propyl]piperidin-4-yl}oxy)ethoxy]acetamido}-3,3-dimethylbutanoyl]-4-hydroxy-N-[(1S)-1-[4-(4-methyl-1,3-thiazol-5-yl)phenyl]ethyl]pyrrolidine-2-carboxamide], the Dmax at HiBit-KRAS^G12C [1] (setting [3]) was below 35%; at HiBit-KRAS^G12C [1] (setting [6]), below 35%; on HiBit-KRAS^G12C [2] (setting [4]) it was 35 to 70%; on HiBit-KRAS^G12C [2] (setting [7]), 35 to 70%. Moreover, the DC50 at HiBit-KRAS^G12C [2] (setting [5]) was above 1000 nM.

For the compound `C=CC(=O)N1CCN(c2nc(OCCN3CCC(OCCOCC(=O)N[C@H](C(=O)N4C[C@H](O)C[C@H]4C(=O)N[C@@H](C)c4ccc(-c5scnc5C)cc4)C(C)(C)C)CC3)nc3c(F)c(-c4cc(O)cc5ccccc45)c(Cl)cc23)C[C@@H]1CC#N` [Compound 32, (2S,4R)-1-[(2S)-2-{2-[2-({1-[2-({6-chloro-4-[(3S)-3-(cyanomethyl)-4-(prop-2-enoyl)piperazin-1-yl]-8-fluoro-7-(3-hydroxynaphthalen-1-yl)quinazolin-2-yl}oxy)ethyl]piperidin-4-yl}oxy)ethoxy]acetamido}-3,3-dimethylbutanoyl]-4-hydroxy-N-[(1S)-1-[4-(4-methyl-1,3-thiazol-5-yl)phenyl]ethyl]pyrrolidine-2-carboxamide], the Dmax is 35 to 70% on HiBit-KRAS^G12C [1] (setting [3]), above 70% on HiBit-KRAS^G12C [1] (setting [6]), 35 to 70% on HiBit-KRAS^G12C [2] (setting [4]) and above 70% on HiBit-KRAS^G12C [2] (setting [7]). Besides, the DC50 at HiBit-KRAS^G12C [2] (setting [5]) was 100 to 1000 nM.

For the compound `C=CC(=O)N1CCN(c2nc(O[C@H](C)CN3CCC(OCCOCC(=O)N[C@H](C(=O)N4C[C@H](O)C[C@H]4C(=O)N[C@@H](C)c4ccc(-c5scnc5C)cc4)C(C)(C)C)CC3)nc3c(F)c(-c4cc(O)cc5ccccc45)c(Cl)cc23)C[C@@H]1CC#N` [Compound 33, (2S,4R)-1-[(2S)-2-{2-[2-({1-[(2R)-2-({6-chloro-4-[(3S)-3-(cyanomethyl)-4-(prop-2-enoyl)piperazin-1-yl]-8-fluoro-7-(3-hydroxynaphthalen-1-yl)quinazolin-2-yl}oxy)propyl]piperidin-4-yl}oxy)ethoxy]acetamido}-3,3-dimethylbutanoyl]-4-hydroxy-N-[(1S)-1-[4-(4-methyl-1,3-thiazol-5-yl)phenyl]ethyl]pyrrolidine-2-carboxamide], the Dmax at HiBit-KRAS^G12C [1] (setting [3]), on HiBit-KRAS^G12C [1] (setting [6]), at HiBit-KRAS^G12C [2] (setting [4]) and at HiBit-KRAS^G12C [2] (setting [7]) was 35 to 70% each time. Further, the DC50 on HiBit-KRAS^G12C [2] (setting [5]) was 100 to 1000 nM.

With `C=CC(=O)N1CCN(c2nc(O[C@H](C)CN3CCC(C(=O)N[C@H](C(=O)N4C[C@H](O)C[C@H]4C(=O)N[C@@H](C)c4ccc(-c5scnc5C)cc4)C(C)(C)C)CC3)nc3c(F)c(-c4cc(O)cc5ccccc45)c(Cl)cc23)CC1` [Compound 34, 1-[(2R)-2-{[6-chloro-8-fluoro-7-(3-hydroxynaphthalen-1-yl)-4-[4-(prop-2-enoyl)piperazin-1-yl]quinazolin-2-yl]oxy}propyl]-N-[(2S)-1-[(2S,4R)-4-hydroxy-2-{[(1S)-1-[4-(4-methyl-1,3-thiazol-5-yl)phenyl]ethyl]carbamoyl}pyrrolidin-1-yl]-3,3-dimethyl-1-oxobutan-2-yl]piperidine-4-carboxamide], the DC50 is above 1000 nM on HiBit-KRAS^G12C [1] (0.1% DMSO) and 100 to 1000 nM on HiBit-KRAS^G12C [2] (setting [5]). Also, at HiBit-KRAS^G12C [2] (setting [4]), the Dmax is below 35%.

For the compound `C=CC(=O)N1C[C@H](C)N(c2nc(OCCN3CCC(COCC(=O)N[C@H](C(=O)N4C[C@H](O)C[C@H]4C(=O)N[C@@H](C)c4ccc(-c5scnc5C)cc4)C(C)(C)C)CC3)nc3c(F)c(-c4cc(O)cc5ccccc45)c(Cl)cc23)C[C@H]1C` [Compound 36, (2S,4R)-1-[(2S)-2-[2-({1-[2-({6-chloro-4-[(2S,5R)-2,5-dimethyl-4-(prop-2-enoyl)piperazin-1-yl]-8-fluoro-7-(3-hydroxynaphthalen-1-yl)quinazolin-2-yl}oxy)ethyl]piperidin-4-yl}methoxy)acetamido]-3,3-dimethylbutanoyl]-4-hydroxy-N-[(1S)-1-[4-(4-methyl-1,3-thiazol-5-yl)phenyl]ethyl]pyrrolidine-2-carboxamide], the Dmax was below 35% on HiBit-KRAS^G12C [1] (setting [3]), 35 to 70% at HiBit-KRAS^G12C [1] (setting [6]), 35 to 70% at HiBit-KRAS^G12C [2] (setting [4]) and 35 to 70% on HiBit-KRAS^G12C [2] (setting [7]). For the same compound, the DC50 on HiBit-KRAS^G12C [2] (setting [5]) fell in the range of 100 to 1000 nM.

`C=CC(=O)N1CCN(c2nc(O[C@H](C)CN3CCC(CCC(=O)N[C@H](C(=O)N4C[C@H](O)C[C@H]4C(=O)N[C@@H](C)c4ccc(-c5scnc5C)cc4)C(C)(C)C)CC3)nc3c(F)c(-c4cc(O)cc5ccccc45)c(Cl)cc23)CC1` [Compound 37, (2S,4R)-1-[(2S)-2-(3-{1-[(2R)-2-{[6-chloro-8-fluoro-7-(3-hydroxynaphthalen-1-yl)-4-[4-(prop-2-enoyl)piperazin-1-yl]quinazolin-2-yl]oxy}propyl]piperidin-4-yl}propanamido)-3,3-dimethylbutanoyl]-4-hydroxy-N-[(1S)-1-[4-(4-methyl-1,3-thiazol-5-yl)phenyl]ethyl]pyrrolidine-2-carboxamide]: the results for the Dmax at HiBit-KRAS^G12C [1] (setting [3]) and at HiBit-KRAS^G12C [2] (setting [4]) were below 35% and 35 to 70%, respectively. Moreover, the DC50 on HiBit-KRAS^G12C [2] (setting [5]) was 100 to 1000 nM.
